Common to all, as to test: SelectScreen Kinase Profiling, single point inhibition and IC50 for off-target kinases
Type in all cases: biochemical

Test [1] addresses off-target kinases (Homo sapiens, UniProt P06213). The following applies: INSR, ZLYTE, ATP Km app.
Test [2] addresses T1, off-target kinases (Homo sapiens, UniProt Q96PF2).
T1 sequence (Q96PF2 1-358): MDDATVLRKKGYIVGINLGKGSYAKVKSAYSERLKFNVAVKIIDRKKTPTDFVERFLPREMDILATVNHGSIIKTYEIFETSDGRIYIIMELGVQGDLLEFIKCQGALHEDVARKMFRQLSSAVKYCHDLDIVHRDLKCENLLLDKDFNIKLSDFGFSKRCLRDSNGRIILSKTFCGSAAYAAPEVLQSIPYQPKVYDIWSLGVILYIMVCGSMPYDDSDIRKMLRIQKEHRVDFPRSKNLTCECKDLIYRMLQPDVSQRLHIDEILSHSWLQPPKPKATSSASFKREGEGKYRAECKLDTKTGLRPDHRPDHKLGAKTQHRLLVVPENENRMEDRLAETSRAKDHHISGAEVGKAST
The note with it: STK22B (TSSK2), ZLYTE, ATP Km app.

The target of test [3] is off-target kinases (Homo sapiens, UniProt Q14289). The note with it: PTK2B (FAK2), ZLYTE, ATP Km app.
Test [4] has as its target T2, off-target kinases (Homo sapiens, UniProt O14936).
T2 sequence (O14936 1-926): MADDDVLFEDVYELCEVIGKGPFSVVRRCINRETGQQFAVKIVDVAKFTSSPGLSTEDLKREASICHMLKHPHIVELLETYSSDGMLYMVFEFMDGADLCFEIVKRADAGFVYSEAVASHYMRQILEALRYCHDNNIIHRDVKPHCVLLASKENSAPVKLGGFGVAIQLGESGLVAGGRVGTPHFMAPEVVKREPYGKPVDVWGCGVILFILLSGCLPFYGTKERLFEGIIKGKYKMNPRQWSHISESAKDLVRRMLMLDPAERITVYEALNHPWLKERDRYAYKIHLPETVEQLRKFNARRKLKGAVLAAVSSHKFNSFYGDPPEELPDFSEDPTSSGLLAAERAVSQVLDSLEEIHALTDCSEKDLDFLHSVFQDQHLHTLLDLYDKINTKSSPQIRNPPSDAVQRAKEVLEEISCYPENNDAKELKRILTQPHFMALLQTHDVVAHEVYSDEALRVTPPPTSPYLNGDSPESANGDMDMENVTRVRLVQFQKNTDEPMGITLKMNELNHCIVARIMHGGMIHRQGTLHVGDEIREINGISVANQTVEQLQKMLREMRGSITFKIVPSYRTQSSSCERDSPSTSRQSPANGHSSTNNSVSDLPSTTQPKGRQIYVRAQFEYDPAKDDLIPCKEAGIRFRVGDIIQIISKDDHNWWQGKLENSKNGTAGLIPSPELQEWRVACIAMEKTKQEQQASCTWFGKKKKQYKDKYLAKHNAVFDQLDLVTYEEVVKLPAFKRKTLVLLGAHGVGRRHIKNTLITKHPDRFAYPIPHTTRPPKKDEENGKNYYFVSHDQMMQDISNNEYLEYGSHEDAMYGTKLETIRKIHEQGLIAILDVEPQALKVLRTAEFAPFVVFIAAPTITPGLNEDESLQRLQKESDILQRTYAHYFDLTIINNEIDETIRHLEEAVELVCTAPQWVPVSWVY
The following applies: CASK, LanthaScreen Binding. (TR-FRET usually uses a lanthanide donor and a delayed reading to cut background.)

Test [5] has as its target off-target kinases (Homo sapiens, UniProt P53350). The note with it: PLK1, ZLYTE, ATP Km app.

Like-named read-outs stand apart in the source and are kept apart here.

Chain of off-target kinases (Homo sapiens, UniProt Q14289) (Q14289 whole entry): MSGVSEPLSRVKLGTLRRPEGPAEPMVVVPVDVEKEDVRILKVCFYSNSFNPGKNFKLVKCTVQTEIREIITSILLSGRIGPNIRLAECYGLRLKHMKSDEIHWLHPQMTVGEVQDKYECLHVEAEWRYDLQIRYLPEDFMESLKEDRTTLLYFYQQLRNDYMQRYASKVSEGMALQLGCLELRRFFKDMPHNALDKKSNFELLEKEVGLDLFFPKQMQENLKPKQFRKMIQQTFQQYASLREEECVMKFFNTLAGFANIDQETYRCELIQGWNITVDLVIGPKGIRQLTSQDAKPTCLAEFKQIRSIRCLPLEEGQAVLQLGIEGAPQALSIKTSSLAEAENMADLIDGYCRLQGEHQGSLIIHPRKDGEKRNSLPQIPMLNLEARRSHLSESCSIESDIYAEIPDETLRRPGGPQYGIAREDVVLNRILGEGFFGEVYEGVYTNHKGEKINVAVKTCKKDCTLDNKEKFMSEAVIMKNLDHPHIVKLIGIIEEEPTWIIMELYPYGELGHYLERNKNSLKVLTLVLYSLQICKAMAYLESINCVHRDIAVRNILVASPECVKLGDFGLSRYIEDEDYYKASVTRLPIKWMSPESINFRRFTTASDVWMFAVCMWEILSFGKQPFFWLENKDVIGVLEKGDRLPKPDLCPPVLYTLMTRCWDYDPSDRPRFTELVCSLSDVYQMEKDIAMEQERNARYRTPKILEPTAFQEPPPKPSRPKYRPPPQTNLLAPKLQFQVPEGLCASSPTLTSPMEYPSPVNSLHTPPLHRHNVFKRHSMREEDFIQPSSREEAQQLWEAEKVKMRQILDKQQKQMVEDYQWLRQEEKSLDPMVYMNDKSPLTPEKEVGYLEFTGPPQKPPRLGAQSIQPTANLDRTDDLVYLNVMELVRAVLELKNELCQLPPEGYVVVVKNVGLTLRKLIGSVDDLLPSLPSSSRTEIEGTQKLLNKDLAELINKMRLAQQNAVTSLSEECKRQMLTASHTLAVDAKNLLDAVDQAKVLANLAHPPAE
Chain of off-target kinases (Homo sapiens, UniProt P06213) (P06213 28-1382): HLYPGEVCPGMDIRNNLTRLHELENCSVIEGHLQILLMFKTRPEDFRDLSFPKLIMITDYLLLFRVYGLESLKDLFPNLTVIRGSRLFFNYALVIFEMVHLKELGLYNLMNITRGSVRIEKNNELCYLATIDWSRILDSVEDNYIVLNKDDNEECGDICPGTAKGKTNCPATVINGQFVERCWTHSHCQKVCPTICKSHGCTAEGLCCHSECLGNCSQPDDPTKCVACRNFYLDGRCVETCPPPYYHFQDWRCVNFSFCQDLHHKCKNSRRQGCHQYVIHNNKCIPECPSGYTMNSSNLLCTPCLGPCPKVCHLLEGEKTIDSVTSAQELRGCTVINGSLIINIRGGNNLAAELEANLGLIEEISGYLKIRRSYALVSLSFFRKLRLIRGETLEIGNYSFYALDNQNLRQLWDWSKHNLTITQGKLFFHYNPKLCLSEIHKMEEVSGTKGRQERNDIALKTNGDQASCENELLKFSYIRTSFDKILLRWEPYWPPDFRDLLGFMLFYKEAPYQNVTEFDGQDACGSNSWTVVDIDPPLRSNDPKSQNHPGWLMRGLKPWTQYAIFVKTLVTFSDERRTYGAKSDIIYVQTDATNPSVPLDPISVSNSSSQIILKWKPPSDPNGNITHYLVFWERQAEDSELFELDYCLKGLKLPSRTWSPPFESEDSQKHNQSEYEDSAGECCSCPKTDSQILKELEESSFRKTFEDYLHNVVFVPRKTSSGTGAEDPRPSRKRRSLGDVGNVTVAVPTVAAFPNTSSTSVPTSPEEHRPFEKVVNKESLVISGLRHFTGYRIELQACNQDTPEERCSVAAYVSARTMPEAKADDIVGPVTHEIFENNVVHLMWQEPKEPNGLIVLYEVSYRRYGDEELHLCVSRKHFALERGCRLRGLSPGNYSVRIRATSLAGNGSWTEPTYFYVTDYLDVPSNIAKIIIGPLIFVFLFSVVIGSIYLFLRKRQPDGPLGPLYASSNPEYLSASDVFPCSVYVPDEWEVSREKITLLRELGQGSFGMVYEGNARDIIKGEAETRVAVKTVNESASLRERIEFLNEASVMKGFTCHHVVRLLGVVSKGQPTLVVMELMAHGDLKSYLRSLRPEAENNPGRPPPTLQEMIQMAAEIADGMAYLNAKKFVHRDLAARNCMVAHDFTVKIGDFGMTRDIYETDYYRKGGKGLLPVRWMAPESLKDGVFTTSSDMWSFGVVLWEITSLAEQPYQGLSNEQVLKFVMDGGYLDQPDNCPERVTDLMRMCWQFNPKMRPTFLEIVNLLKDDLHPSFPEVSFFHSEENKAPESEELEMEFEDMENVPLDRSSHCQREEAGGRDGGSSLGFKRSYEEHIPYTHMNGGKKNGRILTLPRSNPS
Chain of off-target kinases (Homo sapiens, UniProt P53350) (P53350 whole entry): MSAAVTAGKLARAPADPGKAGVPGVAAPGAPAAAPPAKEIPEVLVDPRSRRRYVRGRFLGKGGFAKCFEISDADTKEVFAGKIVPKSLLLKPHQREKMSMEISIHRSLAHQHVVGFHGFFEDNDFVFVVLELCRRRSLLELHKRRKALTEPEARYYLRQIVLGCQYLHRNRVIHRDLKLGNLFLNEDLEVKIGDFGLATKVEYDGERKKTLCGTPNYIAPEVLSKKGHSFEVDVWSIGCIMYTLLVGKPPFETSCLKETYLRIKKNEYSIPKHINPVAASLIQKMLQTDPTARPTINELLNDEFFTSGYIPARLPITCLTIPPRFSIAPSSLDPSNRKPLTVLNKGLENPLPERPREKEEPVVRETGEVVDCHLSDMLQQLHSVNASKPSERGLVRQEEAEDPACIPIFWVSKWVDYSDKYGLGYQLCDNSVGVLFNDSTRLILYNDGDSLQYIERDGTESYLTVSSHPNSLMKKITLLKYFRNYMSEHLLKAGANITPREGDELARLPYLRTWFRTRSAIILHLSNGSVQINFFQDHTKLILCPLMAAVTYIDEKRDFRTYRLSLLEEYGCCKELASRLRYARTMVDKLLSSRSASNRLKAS

The inhibition is the relative decrease from the control value, in per cent. Take `N#Cc1cc(-c2ncnc(Nc3ccc(N4CCN(C5COC5)CC4)cc3)n2)ccc1OC1CCOCC1` [Compound 1, 5-(4-((4-(4-(oxetan-3-yl)piperazin-1-yl)phenyl)amino)-1,3,5-triazin-2-yl)-2-((tetrahydro-2H-pyran-4-yl)oxy)benzonitrile]: the inhibition in test [1] (read-out: % Inhibition 1) is -1%; in test [1] (read-out: % Inhibition 2) it was 1%; in test [1] (read-out: % Inhibition Avg) it was 0%; in test [2] (read-out: % Inhibition 1), 12%; in test [2] (read-out: % Inhibition 2), 14%; in test [2] (read-out: % Inhibition Avg) it was 13%. Also, the inhibition in test [3] (read-out: % Inhibition 1) was 8%; in test [3] (read-out: % Inhibition 2), 4%; in test [3] (read-out: % Inhibition Avg) it was 6%; in test [4] (read-out: % Inhibition 1) it was 6%; in test [4] (read-out: % Inhibition 2), 10%; in test [4] (read-out: % Inhibition Avg), 8%. Moreover, the figures for the inhibition in test [5] (read-out: % Inhibition 1), in test [5] (read-out: % Inhibition 2) and in test [5] (read-out: % Inhibition Avg) were 12%, 9% and 11%, respectively.

These data come from patent US11572590B2, “Methods for evaluating tumor cell spheroids using 3D microfluidic cell culture device” (Dana-Farber Cancer Institute, Inc., priority 2017, dated 2023).
